# Test results: patent US10087225B2, “Formulation of MK2 inhibitor peptides” (MOERAE MATRIX, INC., priority 2015, dated 2018)
# Peptide text beside a SMILES is read from it.
# Legend:
# HCAVSMCs [1] = assay: Cytosolic vs. organelle bound peptide by digitonin semi-permeabilization; assay type: cell-based, human; conditions: Bafilomycin treatment
# Method: In order to quantify the cytosolic bioavailability of the MK2i and HSP20 peptides a method to separate cytosolic and organelle bound (i.e. endosomal, lysosomal, golgi, etc.) peptide was adapted from the methods developed by Liu et a140. The procedure was optimized for this experiment based upon LDH release from HCAVSMCs treated with varying concentrations of digitonin (Calbiochem) in buffer (150 mM NaCl, 0.2 mM EDTA, 20 mM HEPES-NaOH (pH 7.4), 2 mM DTT and 2 mM MgCL2) on ice for 10 mins on a rotary shaker operating at 100 RPM (supplementary FIG. 3). A concentration of 25 μg/mL was then chosen as the optimal digitonin concentration for selective semi-permeabilization of the HCAVSMC membrane and subsequently used for the analysis of intracellular peptide distribution.
# To quantify intracellular distribution of the MK2i and p-HSP20 peptides, HCAVSMCs were seeded into a 96 well plate at a density of 20,000 cells/cm2 and allowed to adhere overnight in complete growth medium. A portion of the cells were pretreated with 500 nM Bafilomycin A1 (Sigma) for 30 minutes, and the Bafilomycin was included in subsequent peptide/NP treatment and in the post-treatment incubation phase to inhibit endosomal acidification. […] Treatments were removed and cells were incubated in fresh medium with or without 500 nM Bafilomycin A1 for 6 hours. […]
# [2] = test system: human saphenous vein (HSV); assay: Inhibition of phenylephrine-induced HSV contraction; conditions: 2 h treatment
# Method: Prior to experiments, HSV viability was confirmed. HSV rings were weighed and their lengths recorded. […] The rings were stretched and the length progressively adjusted until maximal tension was obtained 49. Normalized reactivity was obtained by determining the passive length-tension relationship for each vessel segment. Rings were maintained at a resting tension of 1 g, which produces maximal responses to contractile agonists, as previously determined, and equilibrated for 2 h in buffer. Force measurements were obtained using a Radnoti Glass Technology (Monrovia, Calif.) force transducer (159901A) interfaced with a Powerlab data acquisition system and LabChart software (AD Instruments, Colorado Springs, Colo.).
# HSV rings were initially isometrically contracted with 110 mM KCl (with equimolar replacement of NaCl in bicarbonate buffer), and the generated force was measured. 110 mM KCl causes membrane depolarization, leading to contraction of vessels containing functionally viable smooth muscle. […]
# Viable HSV rings were washed, allowed to equilibrate in bicarbonate solution for 30 min, and then contracted with phenylephrine (PE, 1 μM). […] Treated HSV rings were then contracted with the same doses of PE, and the forces generated were again recorded. […]
# HCAVSMCs [3] = conditions: human, 72 h
# Method: For MK2i-NP and HSP20-NP studies, An amine-reactive Alexa-488 succinimidyl ester (Life Technologies) was dissolved in DMSO and mixed at a 1 to 3 molar ratio with the MK2i or p-HSP20 peptide in 100 mM sodium bicarbonate buffer (pH=8.3) and allowed to react for 3 hours. Unreacted fluorophore and organic solvent were removed using a PD-10 miditrap G-10 desalting column, and the fluorescently labeled MK2i and p-HSP20 peptides were lyophilized. […] Similarly, PPAA was mixed with fluorescently labeled p-HSP20 at a CR of [NH3^+]/[COO^−]=1:3 and syringe filtered through a 0.45 μm PTFE filter to form fluorescent HSP20-NPs. HCAVSMCs were grown to 80-90% confluence, harvested, and seeded at 20,000 cells/well in a 24 well plate and allowed to adhere overnight. […] Following treatment, cells were washed 2× in PBS, and either immediately harvested or incubated in complete growth media for an additional 72 hours. Cells were harvested with 0.05% trypsin-EDTA, centrifuged, and suspended in 0.1% Trypan blue in PBS (−/−) for analysis on a FACSCalibur flow cytometer (Becton Dickinson) with BD CellQuest™ Pro software (V 5.2). Data was exported and analyzed with FlowJo software (V 7.6.4). All samples were run in triplicate.
# in vitro = conditions: human, HCAVSMCs
# Method: 200 μL of cell suspension (at 10,000 cells/well) were seeded onto 96-well plates to yield an approximate 70% confluence per well. Cells were allowed to adhere to the plate overnight. […] Treatments were subsequently removed and the cells were cultured in fresh complete growth medium for 24 hours. Cells were then washed 2× with PBS +/+ and cell viability was then determined by a CytoTox-ONE Homogenous Membrane Integrity assay (Promega) according to the manufacturer's protocol. Briefly, 100 μL of Ambion KDalert Lysis Buffer was added to each well, and then 100 μL of freshly prepared CytoTox-ONE reagent was added to each well. After 10 minutes of incubation, 50 μL of stop solution was added, and the fluorescence of each well (kλex=560 nm, λem, =590 nm) was determined with a TECAN Infinite M1000 Pro plate reader.
compound,measurement,setting,value
CC(C)C[C@H](NC(=O)CNC(=O)[C@@H]1CCCN1C(=O)[C@H](CC(C)C)NC(=O)[C@@H]1CCCN1C(=O)[C@H](C)NC(=O)[C@H](COP(=O)(O)O)NC(=O)[C@H](C)NC(=O)[C@H](CCCNC(=N)N)NC(=O)[C@H](CCCNC(=N)N)NC(=O)[C@H](CC(C)C)NC(=O)[C@H](Cc1c[nH]c2ccccc12)NC(=O)[C@H](C)NC(=O)[C@H](CCCNC(=N)N)NC(=O)[C@H](C)NC(=O)[C@H](CCC(N)=O)NC(=O)[C@H](CCCNC(=N)N)NC(=O)[C@H](C)NC(=O)[C@H](C)NC(=O)[C@H](C)NC(=O)[C@H](CCCNC(=N)N)NC(=O)[C@H](C)NC(=O)[C@@H](N)Cc1ccc(O)cc1)C(=O)N[C@@H](CCCCN)C(=O)O [p-HSP20] (HELM PEPTIDE1{Y.A.R.A.A.A.R.Q.A.R.A.W.L.R.R.A.[O=C([C@H](COP(=O)(O)O)N[*:1])[*:2]].A.P.L.P.G.L.K}$$$$V2.0; N-terminus and C-terminus assumed),cytosolic fraction of internalized free peptide,HCAVSMCs [1],7.36%±8.28%
same,PE-induced HSV contraction,[2],significantly inhibited
same,intracellular peptide retention (% of initial uptake remaining),HCAVSMCs [3],35%
same,"viability at 2 h, 500 µM",in vitro,77%
